Consider one compound from PubChem BioAssay (NCI).

Test systems include A498 renal; COLO 205 colon; DMS 114 small cell lung; HL-60(TB) leukemia; K-562 leukemia; KM12 colon; LOX IMVI melanoma; M14 melanoma; MALME-3M melanoma; MOLT-4 leukemia; NCI-H226 lung; OVCAR-8 ovarian; SF-295 CNS; SK-MEL-28 melanoma; SN12C renal; U251 CNS; UACC-257 melanoma; UACC-62 melanoma.
Experiment in all cases: inhibition of tumour cell growth, NCI panel, 48 h

The structures appear in SMILES notation.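 All cell lines were grown in 96-well plates and treated with compound for 48 hours. The concentration for full growth arrest is given as TGI.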

In the case of `O=C(CC(CC(=O)Oc1c(Br)cc(Br)cc1C(=O)O)C(=O)Oc1c(Br)cc(Br)cc1C(=O)O)Oc1c(Br)cc(Br)cc1C(=O)O`, the TGI in the assay with A498 renal is over 100 µM; in the assay with COLO 205 colon, over 100 µM; with DMS 114 small cell lung, over 100 µM; in the assay on HL-60(TB) leukemia it was 96.6 µM; with K-562 leukemia it was over 100 µM; in the assay with KM12 colon it was over 100 µM. Besides, the TGI with LOX IMVI melanoma is over 100 µM; in the assay on M14 melanoma, over 100 µM; with MALME-3M melanoma it was over 100 µM; with MOLT-4 leukemia, over 100 µM; with NCI-H226 lung it was 57 µM; in the assay on OVCAR-8 ovarian, 99.6 µM. The TGI in the assay with SF-295 CNS, in the assay with SK-MEL-28 melanoma, with SN12C renal, with U251 CNS, with UACC-257 melanoma and with UACC-62 melanoma was over 100 µM each time.
